Measurements reported in patent US20240252488A1 (KOREA RESEARCH INSTITUTE OF CHEMICAL TECHNOLOGY, priority 2020, published 2024).
pKd: −log10 of the molar value.

How the values were obtained:
FADD−/− Jurkat cells = assay: Necroptosis inhibition assay, TNF-α-induced necroptosis (CellTiter-Glo 2.0); assay type: cell-based, human; conditions: TNF-α 15 ng/mL; for Necroptosis inhibition assay (Rescue %) 1 μM: compound 1 μM; for Necroptosis inhibition assay (Rescue %) 10 μM: compound 10 μM
Procedure, shortened: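 FADD−/− Jurkat cells preincubated 30 min at room temperature with compound at 0.1, 1 and 10 μM final, then stimulated with TNF-α (15 ng/mL final) for 20–24 h at 37 °C, 5% CO2. Viability read as ATP luminescence; cytotoxicity and necroptosis inhibition rate calculated from luminescence values.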

MLKL [1] = biological target: T1, MLKL (Homo sapiens, UniProt Q8NB16); assay: MLKL degradation assay in HepG2 cell line (western blot); assay type: cell-based; parameters: endogenous in cells; host or cells: HepG2 or HaCaT; conditions: cell line not given; for Degradation assay (Degradation %) 1 μM: compound 1 μM; for Degradation assay (Degradation %) 10 μM: compound 10 μM
T1 sequence (Q8NB16 1-471): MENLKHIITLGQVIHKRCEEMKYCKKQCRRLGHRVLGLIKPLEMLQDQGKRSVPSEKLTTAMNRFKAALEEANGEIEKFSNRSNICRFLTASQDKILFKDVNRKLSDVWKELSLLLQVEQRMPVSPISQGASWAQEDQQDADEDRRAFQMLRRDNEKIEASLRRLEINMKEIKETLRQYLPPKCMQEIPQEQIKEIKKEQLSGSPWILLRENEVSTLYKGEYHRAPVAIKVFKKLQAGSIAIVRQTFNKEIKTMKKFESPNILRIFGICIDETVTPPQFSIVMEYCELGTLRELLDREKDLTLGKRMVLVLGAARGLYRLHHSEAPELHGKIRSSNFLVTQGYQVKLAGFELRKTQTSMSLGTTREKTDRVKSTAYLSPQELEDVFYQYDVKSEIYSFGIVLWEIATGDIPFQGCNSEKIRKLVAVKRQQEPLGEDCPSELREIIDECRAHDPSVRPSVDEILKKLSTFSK
Procedure, shortened: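 HepG2 cells were treated 20-24 h at 37 °C with compound at 1 or 10 μM final. RIPA lysates were normalized by BCA, and 10-15 μg protein per lane was resolved by SDS-PAGE. MLKL was detected by western blot with chemiluminescence.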

MLKL [2] = biological target: T1, MLKL; assay: Measurement of binding affinity with MLKL receptor (competitive binding assay, Kd); parameters: made in house; host or cells: HEK 293 cell line (T7 phage in E. coli BL21-derived host is also described)
Procedure, shortened: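 Kd comes from a bead-based competition format: compound-dependent loss of DNA-tagged, HEK 293-expressed MLKL capture, measured as eluate kinase by qPCR. Final DMSO is 0.9%.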

| Structure (SMILES) | Necroptosis inhibition assay (Rescue %) 1 μM (FADD−/− Jurkat cells; FADD−/− Jurkat cells) [%] | Necroptosis inhibition assay (Rescue %) 10 μM (FADD−/− Jurkat cells; FADD−/− Jurkat cells) [%] | Degradation assay (Degradation %) 1 μM (MLKL [1]) [%] | Degradation assay (Degradation %) 10 μM (MLKL [1]) [%] | pKd (MLKL [2]) | Necroptosis inhibition assay (Rescue %) 1 μM (FADD−/− Jurkat cells) [%] | Necroptosis inhibition assay (Rescue %) 10 μM (FADD−/− Jurkat cells) [%] |
| --- | --- | --- | --- | --- | --- | --- | --- |
| Nc1ncc(-c2cnn(C3CCN(C(=O)CCC4CCN(C(=O)CC5CCN(c6cccc7c6C(=O)N(C6CCC(=O)NC6=O)C7=O)CC5)CC4)CC3)c2)nc1C(=O)O[C@@H](C(=O)Nc1ccc(F)cc1)c1ccccc1 (stereo partly drawn) [TDH-429, (R)-2-((4-fluorophenyl)amino)-2-oxo-1-phenylethyl 3-amino-6-(1-(1-(3-(1-(2-(1-(2-(2,6-dioxopiperidin-3-yl)-1,3-dioxoisoindolin-4-yl)piperidin-4-yl)acetyl)piperidin-4-yl)propanoyl)piperidin-4-yl)-1H-pyrazol-4-yl)pyrazine-2-carboxylate] | 18.34 | 11.03 | 77.13 | 63.72 | 8.64 | – | – |
| Nc1ncc(-c2cnn(C3CCN(CCCN4CCN(C(=O)CNc5ccc6c(c5)C(=O)N(C5CCC(=O)NC5=O)C6=O)CC4)CC3)c2)nc1C(=O)OC(C(=O)Nc1ccc(F)cc1)c1ccccc1 (centres unmarked) [TDH-242, 2-((4-fluorophenyl)amino)-2-oxo-1-phenylethyl 3-amino-6-(1-(1-(3-(4-((2-(2,6-dioxopiperidin-3-yl)-1,3-dioxoisoindolin-5-yl)glycyl)piperazin-1-yl)propyl)piperidin-4-yl)-1H-pyrazol-4-yl)pyrazine-2-carboxylate] | – | – | 75.75 | 66.84 | 8.60 | 71.4 | 44.8 |
| Cn1c(=O)n(C2CCC(=O)NC2=O)c2ccc(N3CCC(C(=O)N4CCN(CCCN5CCC(n6cc(-c7cnc(N)c(C(=O)O[C@@H](C(=O)Nc8ccc(F)cc8)c8ccccc8)n7)cn6)CC5)CC4)CC3)cc21 (stereo partly drawn) [TDH-540, (R)-2-((4-fluorophenyl)amino)-2-oxo-1-phenylethyl 3-amino-6-(1-(1-(3-(4-(1-(1-(2,6-dioxopiperidin-3-yl)-3-methyl-2-oxo-2,3-dihydro-1H-benzo[d]imidazol-5-yl)piperidine-4-carbonyl)piperazin-1-yl)propyl)piperidin-4-yl)-1H-pyrazol-4-yl)pyrazine-2-carboxylate] | 20.79 | 17.37 | 81.44 | 56.99 | 9.43 | – | – |
| Nc1ncc(-c2cnn(C3CCN(CCOCCOCCOCCNc4cccc5c4C(=O)N(C4CCC(=O)NC4=O)C5=O)CC3)c2)nc1C(=O)O[C@@H](C(=O)Nc1ccc(F)cc1)c1ccccc1 (stereo partly drawn) [TDH-153, (R)-2-((4-fluorophenyl)amino)-2-oxo-1-phenylethyl 3-amino-6-(1-(1-(2-(2-(2-(2-((2-(2,6-dioxopiperidin-3-yl)-1,3-dioxoisoindolin-4-yl)amino)ethoxy)ethoxy)ethoxy)ethyl)piperidin-4-yl)-1H-pyrazol-4-yl)pyrazine-2-carboxylate] | – | – | 37.66 | 24.63 | 8.04 | 37.21 | 16.52 |
| Nc1ncc(-c2cnn(C3CCN(C(=O)c4cn(C5CCN(c6cccc7c6C(=O)N(C6CCC(=O)NC6=O)C7=O)CC5)cn4)CC3)c2)nc1C(=O)O[C@@H](C(=O)Nc1ccc(F)cc1)c1ccccc1 (stereo partly drawn) [TDH-364, (R)-2-((4-fluorophenyl)amino)-2-oxo-1-phenylethyl 3-amino-6-(1-(1-(1-(1-(2-(2,6-dioxopiperidin-3-yl)-1,3-dioxoisoindolin-4-yl)piperidin-4-yl)-1H-imidazole-4-carbonyl)piperidin-4-yl)-1H-pyrazol-4-yl)pyrazine-2-carboxylate] | – | – | 72.07 | 65.89 | 8.28 | 22.41 | 17.66 |
| Nc1ncc(-c2cnn(C3CCN(CC4CCN(CC5CCN(C(=O)CNc6ccc7c(c6)C(=O)N(C6CCC(=O)NC6=O)C7=O)CC5)CC4)CC3)c2)nc1C(=O)O[C@@H](C(=O)Nc1ccc(F)cc1)c1ccccc1 (stereo partly drawn) [TDH-426, (R)-2-((4-fluorophenyl)amino)-2-oxo-1-phenylethyl 3-amino-6-(1-(1-((1-((1-((2-(2,6-dioxopiperidin-3-yl)-1,3-dioxoisoindolin-5-yl)glycyl)piperidin-4-yl)methyl)piperidin-4-yl)methyl)piperidin-4-yl)-1H-pyrazol-4-yl)pyrazine-2-carboxylate] | 55.42 | – | 18.62 | 57.41 | 8.92 | – | – |
| Nc1ncc(-c2cnn(C3CCN(CCCCCCNC(=O)CNc4ccc5c(c4)C(=O)N(C4CCC(=O)NC4=O)C5=O)CC3)c2)nc1C(=O)O[C@@H](C(=O)Nc1ccc(F)cc1)c1ccccc1 (stereo partly drawn) [TDH-132, (R)-2-((4-fluorophenyl)amino)-2-oxo-1-phenylethyl 3-amino-6-(1-(1-(6-(2-((2-(2,6-dioxopiperidin-3-yl)-1,3-dioxoisoindolin-5-yl)amino)acetamido)hexyl)piperidin-4-yl)-1H-pyrazol-4-yl)pyrazine-2-carboxylate] | – | – | 40.32 | 50.03 | 8.92 | 75.06 | 54.76 |
| Nc1ncc(-c2cnn(C3CCN(CC4CCN(c5ccc6c(c5)C(=O)N(C5CCC(=O)NC5=O)C6=O)CC4)CC3)c2)nc1C(=O)O[C@@H](C(=O)Nc1ccc(F)cc1)c1ccccc1 (stereo partly drawn) [TDH-150, (R)-2-((4-fluorophenyl)amino)-2-oxo-1-phenylethyl 3-amino-6-(1-(1-((1-(2-(2,6-dioxopiperidin-3-yl)-1,3-dioxoisoindolin-5-yl)piperidin-4-yl)methyl)piperidin-4-yl)-1H-pyrazol-4-yl)pyrazine-2-carboxylate] | – | – | 66.97 | 53.7 | 7.37 | 53.91 | 39.57 |
| Nc1ncc(-c2cnn(C3CCN(CCOC4CCN(C(=O)C5CCN(c6ccc7c(c6)C(=O)N(C6CCC(=O)NC6=O)C7=O)CC5)CC4)CC3)c2)nc1C(=O)OC(C(=O)Nc1ccc(F)cc1)c1ccccc1 (centres unmarked) [TDH-248, 2-((4-fluorophenyl)amino)-2-oxo-1-phenylethyl 3-amino-6-(1-(1-(2-((1-(1-(2-(2,6-dioxopiperidin-3-yl)-1,3-dioxoisoindolin-5-yl)piperidine-4-carbonyl)piperidin-4-yl)oxy)ethyl)piperidin-4-yl)-1H-pyrazol-4-yl)pyrazine-2-carboxylate] | – | – | 47.44 | 14.59 | 8.07 | 72.38 | 51.46 |
